This note sets out measurements from patent US20210220434A1, “Treatment of Vascular Occlusion by Activation of Notch Signaling” (The Regents of the University of California, priority 2018, published 2021).

Experiment [1] concerns distal middle cerebral artery occlusion (dMCAO) mouse model. The experiment can be described thus: Collateral artery size and function after dMCAO stroke induction. The format is in vivo. From the text: (§1) FIGS. 6A, 6B, and 6C. […] FIG. 6A depicts the time course of the experiment, with recombinant DLL4 administered one day prior to and for seven days following dMCAO stroke induction. FIG. 6B: Collateral artery diameter, velocity, and flux, and the area between the vertical lines denotes the period of DLL4 administration. Triangles: rDLL4, Circles: Control. Control, n=5, Treated; n=5. *P<0.05, **P<0.01. FIG. 6C depicts ladder test results for mice are subject to behavior test at 15 to 17 days after experimental stroke, the scores being the average of the two measurements.
(§2) Collateral artery size and function was assessed at seven and fourteen days following injury.

Experiment [2] has the same test system. The experiment can be described thus: Ladder test of neurological function after dMCAO. The experiment is classed as in vivo.
Description: as §1, §2

Setting [3] is: wild type C57BL/6J mice, dMCAO, daily iv for eight days from the day before dMCAO, day 7, vs control.

Turning to “rDLL4: recombinant mouse DLL4 (Delta-like ligand 4), a Notch activating ligand, given intravenously”, the “collateral artery size and function (diameter, velocity, flux)” value in experiment [1] (day 14 after dMCAO, 7 days after administration was halted, vs control) is “Significant improvements in the treated mice persisted”. Also, in experiment [1] (following dMCAO, FIG. 6 legend), the cerebral blood flow result is reported as “preserves cerebral blood flow” and the growth of collaterals entry is recorded as “improves growth of collaterals”. In addition, in experiment [1] (setting [3]), the collateral artery diameter entry was “significantly improved”, the collateral artery flux entry is listed as “significantly improved” and the collateral artery velocity entry is given as “significantly improved”. Besides, the “neurological function, ladder test” value in experiment [2] (day 15 and 17 after dMCAO, vs control) is given as “higher in the treated mice”. The neurological function result in experiment [2] (following dMCAO, FIG. 6 legend) is “improving neurological function”.
